A short description of series [1]: Measurement of LogD (CHI logD by HPLC). The conditions noted are these: CHI log D, 50 mM ammonium acetate pH 7.4 / acetonitrile gradient, C-18 column, 25° C. Type of series: physicochemical. On the procedure:
Measurement of LogD: LogD values were measured on a Agilent 1260 HPLC with UV detector (254, 220 nm), using a Gemini NX C-18 50×3 mm column (Phenomenex) with a 6-minute 0-100% mobile phase gradient of A) 50 mM ammonium acetate pH 7.4 and B) Acetonitrile at 25° C. with a flow rate of 1 mL/min and injection volume of 3-5 uL.

The next series addresses T1, full-length β-Catenin (Homo sapiens, UniProt P35222).
T1 construct: Probe solution (15 nM full-length β-Catenin, 20 nM FITC labeled Axin peptide in buffer)
T1 sequence (P35222 1-781): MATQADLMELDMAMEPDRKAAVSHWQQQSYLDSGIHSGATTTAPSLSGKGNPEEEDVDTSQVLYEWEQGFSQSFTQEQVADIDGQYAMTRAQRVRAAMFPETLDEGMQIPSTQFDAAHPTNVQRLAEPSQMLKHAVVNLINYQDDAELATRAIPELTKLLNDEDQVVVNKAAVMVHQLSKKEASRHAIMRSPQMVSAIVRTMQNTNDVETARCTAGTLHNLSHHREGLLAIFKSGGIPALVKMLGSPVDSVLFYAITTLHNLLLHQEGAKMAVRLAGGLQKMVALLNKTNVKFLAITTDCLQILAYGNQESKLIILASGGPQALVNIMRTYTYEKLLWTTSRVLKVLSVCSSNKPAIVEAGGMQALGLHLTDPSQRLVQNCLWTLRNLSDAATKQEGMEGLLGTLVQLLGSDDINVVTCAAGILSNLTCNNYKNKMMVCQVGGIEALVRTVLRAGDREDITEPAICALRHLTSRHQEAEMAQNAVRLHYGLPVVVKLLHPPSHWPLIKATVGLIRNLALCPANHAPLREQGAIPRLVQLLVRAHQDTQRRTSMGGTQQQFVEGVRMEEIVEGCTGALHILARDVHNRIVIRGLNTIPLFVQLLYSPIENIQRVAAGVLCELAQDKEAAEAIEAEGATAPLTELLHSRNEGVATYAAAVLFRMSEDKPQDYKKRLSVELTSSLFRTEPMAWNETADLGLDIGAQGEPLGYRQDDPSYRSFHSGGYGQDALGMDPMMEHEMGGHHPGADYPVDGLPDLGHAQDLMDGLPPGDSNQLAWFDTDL
The experiment in a line: Competition fluorescence polarization assay for binding to beta-catenin (displacement of FITC labeled Axin peptide probe). The conditions noted are these: 15 nM full-length β-Catenin, 20 nM FITC labeled Axin peptide probe, 3-fold serial dilution from 5 μM; read-out: bCat EC50. On the procedure:
Peptide assessment: In one assay for assessing binding to beta-catenin, peptide solutions were prepared in buffer (50 mM Tris pH 8.0, 250 mM NaCl, 2% glycerol, 0.5 mM EDTA, 0.02% w/v sodium azide) using a 3-fold serial dilution from 5 μM. Probe solution (15 nM full-length β-Catenin, 20 nM FITC labeled Axin peptide in buffer ([FAM-PEG1-RRWPR(S5)ILD(S5)HVRRVWR (SEQ ID NO: 44)] where the two S5 residues are stapled, as reported in: Proc Natl Acad Sci USA. 2012 Oct. 30; 109(44):17942-7)) was prepared and incubated for 5 minutes, then 40 μL per well plated in a black polystyrene 384-well plate (Corning). Equal volume of the titrated peptide was added to the plate and incubated protected from light for 15 minutes prior to read. Reads were performed on a Spectramax M5 (Molecular Devices) in duplicate.

Among the data in patent US12398178B2, “Collections of peptides, peptide agents, and methods of use thereof” (Parabilis Medicines, Inc., priority 2018, dated 2025) are chromatographic logD and EC50 values, retold here.

Starred links: 1 amine or outer side, 2 acyl side, 3 side chain; linkers in the order of their positions; H or OH if unused. Positions of bridges follow the written chain, without caps; N, C: chain ends. Residues, ends and D or L forms follow the SMILES beside them. No end group written: not given here. X1 = O=C(C[*:1])O[C@@H]1C=C[C@H](OC(=O)C[*:2])C1; X2 = O=C(C[*:1])O[C@@H]1CC[C@H](OC(=O)C[*:2])C1

For “GPAKPEAPGEDASPDELTYYYDELRDYLYSVA-NH2 (C-terminus assumed) [Compound 19]”, the chromatographic logD in series [1] was determined as 0.82. Moreover, on full-length β-Catenin, the EC50 is above 10 µM.
On the same counts, the results for “GPAKPEAPGEDASPDELHHYYQNLETYLYRVA-NH2 (C-terminus assumed) [Compound 15]” are 0.82 and above 10 µM.
Taken in the same sequence, the figures for “GPAKPEAPGEDASPQELHDYYEILDNYLDWVA-NH2 (C-terminus assumed) [Compound 26]” were 0.87 and above 10 µM.
Taken in the same sequence, the figures for “GPAKPEAPGEDASPTELYYYYDHLTDYLDVVP-NH2 (C-terminus assumed) [Compound 24]” were 0.66 and above 10 µM.
In series [1], “GPAKPEAPGEDASPNELYYYYDELHYYLHDVA-NH2 (C-terminus assumed) [Compound 25]” gave a chromatographic logD of 0.59. The EC50 at full-length β-Catenin was above 10 µM.
On the same counts, the results for “GPAKPEAPGEDASPIELWEYYESLETYLDNVA-NH2 (C-terminus assumed) [Compound 29]” are 0.73 and above 10 µM.
On the same counts, the results for `CC(C)C[C@@H]1NC(=O)[C@H](C)NC(=O)[C@H](C)NC(=O)[C@H](Cc2c[nH]c3ccccc23)NC(=O)[C@H](CCC(=O)O)NC(=O)[C@@H](NC(=O)[C@H](CCCNC(=N)N)NC(=O)[C@H](Cc2c[nH]cn2)NC(=O)[C@@H](NC(=O)[C@H](C)NC(=O)[C@@H]2CCCN2C(=O)[C@H](CC(=O)O)NC(=O)[C@H](C)N)[C@@H](C)O)CSCC(=O)Nc2ccccc2NC(=O)CSC[C@@H](C(=O)N[C@@H](CCC(=O)O)C(=O)N[C@@H](CC(C)C)C(=O)N[C@H](C(N)=O)C(C)C)NC(=O)[C@H](Cc2c[nH]cn2)NC1=O` [Compound 35] are 0.77 and above 10 µM.
On the same counts, the results for “GPAKPEAPGEDASPDELHTYYDTLYHYLTSVA-NH2 (C-terminus assumed) [Compound 22]” are 1.09 and above 10 µM.
With “GPAKPEAPGEDASPDELMHYYTSLEDYLDHVP-NH2 (C-terminus assumed) [Compound 18]”, in series [1], the chromatographic logD was 0.52. For the same compound, the EC50 at full-length β-Catenin was above 10 µM.
Taken in the same sequence, the figures for `CC[C@H](C)[C@@H]1NC(=O)[C@H](CC(C)C)NC(=O)[C@H](C)NC(=O)[C@H](C)NC(=O)[C@H](Cc2c[nH]cn2)NC(=O)[C@H](CCC(=O)O)NC(=O)[C@@H](NC(=O)[C@H](C)NC(=O)[C@H](Cc2c[nH]c3ccccc23)NC(=O)[C@H](CC(C)C)NC(=O)[C@H](C)NC(=O)[C@@H]2CCCN2C(=O)[C@H](CC(=O)O)NC(=O)[C@H](C)N)CSCC(=O)O[C@@H]2CC[C@@H](C2)OC(=O)CSC[C@@H](C(=O)N[C@@H](CCC(=O)O)C(=O)N[C@H](C(=O)N[C@@H](CCC(N)=O)C(N)=O)[C@@H](C)O)NC1=O` [Compound 47] (H-ADPALWACEHAALICETQ-NH2; linker 8-15 via X2; N-terminus and C-terminus assumed) were 0.91 and above 10 µM.
Regarding `CC(C)C[C@@H]1NC(=O)[C@H](C)NC(=O)[C@H](C)NC(=O)[C@H](Cc2c[nH]c3ccccc23)NC(=O)[C@H](CCC(=O)O)NC(=O)[C@@H](NC(=O)[C@H](CCCNC(=N)N)NC(=O)[C@H](Cc2c[nH]cn2)NC(=O)[C@@H](NC(=O)[C@H](C)NC(=O)[C@@H]2CCCN2C(=O)[C@H](CC(=O)O)NC(=O)[C@H](C)N)[C@@H](C)O)CSCC(=O)O[C@@H]2CC[C@@H](C2)OC(=O)CSC[C@@H](C(=O)N[C@@H](CCC(=O)O)C(=O)N[C@@H](CC(C)C)C(=O)N[C@H](C(N)=O)C(C)C)NC(=O)[C@H](Cc2c[nH]cn2)NC1=O` [Compound 38], the chromatographic logD in series [1] worked out at 0.8. Further, the EC50 on full-length β-Catenin was above 10 µM.
Taken in the same sequence, the figures for `CC(C)C[C@@H]1NC(=O)[C@H](C)NC(=O)[C@H](C)NC(=O)[C@H](Cc2c[nH]c3ccccc23)NC(=O)[C@H](CCC(=O)O)NC(=O)[C@@H](NC(=O)[C@H](CCCNC(=N)N)NC(=O)[C@H](Cc2c[nH]cn2)NC(=O)[C@@H](NC(=O)[C@H](C)NC(=O)[C@@H]2CCCN2C(=O)[C@H](CC(=O)O)NC(=O)[C@H](C)N)[C@@H](C)O)CSCC(=O)N(C)c2ccc(cc2)N(C)C(=O)CSC[C@@H](C(=O)N[C@@H](CCC(=O)O)C(=O)N[C@@H](CC(C)C)C(=O)N[C@H](C(N)=O)C(C)C)NC(=O)[C@H](Cc2c[nH]cn2)NC1=O` [Compound 31] were 0.68 and above 10 µM.
Taken in the same sequence, the figures for “GPAKPEAPGEDASPDELIFYYDHLSRYLTDVA-NH2 (C-terminus assumed) [Compound 20]” were 0.91 and above 10 µM.
In turn, `CC(C)C[C@@H]1NC(=O)[C@H](C)NC(=O)[C@H](C)NC(=O)[C@H](Cc2c[nH]c3ccccc23)NC(=O)[C@H](CCC(=O)O)NC(=O)[C@@H](NC(=O)[C@H](CCCNC(=N)N)NC(=O)[C@H](Cc2c[nH]cn2)NC(=O)[C@@H](NC(=O)[C@H](C)NC(=O)[C@@H]2CCCN2C(=O)[C@H](CC(=O)O)NC(=O)[C@H](C)N)[C@@H](C)O)CSCC(=O)O[C@H]2CC[C@H](CC2)OC(=O)CSC[C@@H](C(=O)N[C@@H](CCC(=O)O)C(=O)N[C@@H](CC(C)C)C(=O)N[C@H](C(N)=O)C(C)C)NC(=O)[C@H](Cc2c[nH]cn2)NC1=O` [Compound 36] had a chromatographic logD in series [1] of 0.77. In addition, the EC50 on full-length β-Catenin was above 10 µM.
Taken in the same sequence, the figures for “GPAKPEAPGEDASPDELRMYYHELDNYLDQVA-NH2 (C-terminus assumed) [Compound 21]” were 0.44 and above 10 µM.
Taken in the same sequence, the figures for “GPAKPEAPGEDASPDELYHYYTHLEEYLYDVA-NH2 (C-terminus assumed) [Compound 17]” were 0.64 and above 10 µM.
For the compound “GPAKPEAPGEDASPNELHYYYWELDSYLENVA-NH2 (C-terminus assumed) [Compound 27]”, the chromatographic logD in series [1] stood at 0.64. Further, the EC50 at full-length β-Catenin is above 10 µM.
Taken in the same sequence, the figures for `CC(C)C[C@@H]1NC(=O)[C@H](C)NC(=O)[C@H](C)NC(=O)[C@H](Cc2c[nH]c3ccccc23)NC(=O)[C@H](CCC(=O)O)NC(=O)[C@@H](NC(=O)[C@H](CCCNC(=N)N)NC(=O)[C@H](Cc2c[nH]cn2)NC(=O)[C@@H](NC(=O)[C@H](C)NC(=O)[C@@H]2CCCN2C(=O)[C@H](CC(=O)O)NC(=O)[C@H](C)N)[C@@H](C)O)CSCC(=O)O[C@@H]2C=C[C@@H](C2)OC(=O)CSC[C@@H](C(=O)N[C@@H](CCC(=O)O)C(=O)N[C@@H](CC(C)C)C(=O)N[C@H](C(N)=O)C(C)C)NC(=O)[C@H](Cc2c[nH]cn2)NC1=O` [Compound 39] were 0.75 and above 10 µM.
In series [1], `CC[C@H](C)[C@@H]1NC(=O)[C@H](CC(C)C)NC(=O)[C@H](C)NC(=O)[C@H](C)NC(=O)[C@H](Cc2c[nH]cn2)NC(=O)[C@H](CCC(=O)O)NC(=O)[C@@H](NC(=O)[C@H](C)NC(=O)[C@H](Cc2c[nH]c3ccccc23)NC(=O)[C@H](CC(C)C)NC(=O)[C@H](C)NC(=O)[C@@H]2CCCN2C(=O)[C@H](CC(=O)O)NC(=O)[C@H](C)N)CSCC(=O)O[C@@H]2C=C[C@@H](C2)OC(=O)CSC[C@@H](C(=O)N[C@@H](CCC(=O)O)C(=O)N[C@H](C(=O)N[C@@H](CCC(N)=O)C(N)=O)[C@@H](C)O)NC1=O` [Compound 48] (H-ADPALWACEHAALICETQ-NH2; linker 8-15 via X1; N-terminus and C-terminus assumed) yielded a chromatographic logD of 0.93. In addition, at full-length β-Catenin, the EC50 was above 10 µM.
Taken in the same sequence, the figures for “GPAKPEAPGEDASPDELYYYYDDLRQYLSTVA-NH2 (C-terminus assumed) [Compound 23]” were 0.81 and above 10 µM.
On the same counts, the results for “GPAKPEAPGEDASPEELYHYYWDLDDYLDRVA-NH2 (C-terminus assumed) [Compound 28]” are 0.62 and above 10 µM.
Taken in the same sequence, the figures for “GPAKPEAPGEDASPDELIHYYNSLDEYLYEVA-NH2 (C-terminus assumed) [Compound 16]” were 0.53 and above 10 µM.
